Like-named read-outs stand apart in the source and are kept apart here.
Tests used:
BRAF V600E = target: T1, BRAF V600E (Homo sapiens, UniProt P15056+Q96SW2, V600E); assay: BRAF V600E HiBiT Degradation Assay; assay type: cell-based
T1 construct: knock-in of the HiBiT tag to the endogenous BRAF V600E locus; host or cells: A375.10 (A375 clonal line, CRISPR HiBiT knock-in at the endogenous BRAF V600E locus)
In short: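 Endogenous HiBiT knock-in on BRAF V600E in A375 cells (clone A375.10); 11-point half-log series, top 10 μM, 2, 6 or 24 h at 37° C. Lytic HiBiT luminescence, background-subtracted, normalized to DMSO; 4-parameter fit gives DC50, Emax (residual protein) and IP (inflection point).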

A375-NRAS^Q61K cells = assay: CTGlo Cell Viability Assay, A375-NRAS^Q61K (A375.11) cells, 96 hours; assay type: cell-based, human; conditions: Homo sapiens, A375.11 (A375-NRAS^Q61K) cells; for Emax: lowest % viability achieved
In short: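 Viability as CellTiter-Glo ATP luminescence after 96 h compound exposure at 37 °C; A375.11 (BRAF V600E/NRAS Q61K) cells at 250/well, top final concentration 10 μM in half-log steps. Signal was background-corrected and set relative to DMSO controls. A 4-parameter logistic fit gave GI50 (50% crossing) and Emax.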

[1] = A375.10 cells, BRAF V600E, 2 hours, inflection point, read-out: HiBiT-Degradation A375.10 BRAF 2 hours IP
[2] = A375.10 cells, BRAF V600E, 2 hours, read-out: HiBiT-Degradation A375.10 BRAF 2 hours DC50
[3] = A375.10 cells, BRAF V600E, 2 hours, residual protein remaining, read-out: HiBiT-Degradation A375.10 BRAF 2 hours Emax
[4] = read-out: HiBiT-Degradation A375.10 BRAF 2 hours DC50, A375.10 cells, BRAF V600E, 2 hours
[5] = read-out: HiBiT-Degradation A375.10 BRAF 2 hours IP, A375.10 cells, BRAF V600E, 2 hours, inflection point
[6] = read-out: HiBiT-Degradation A375.10 BRAF 2 hours Emax, A375.10 cells, BRAF V600E, 2 hours, residual protein remaining

T1 sequence (P15056 whole entry V600E): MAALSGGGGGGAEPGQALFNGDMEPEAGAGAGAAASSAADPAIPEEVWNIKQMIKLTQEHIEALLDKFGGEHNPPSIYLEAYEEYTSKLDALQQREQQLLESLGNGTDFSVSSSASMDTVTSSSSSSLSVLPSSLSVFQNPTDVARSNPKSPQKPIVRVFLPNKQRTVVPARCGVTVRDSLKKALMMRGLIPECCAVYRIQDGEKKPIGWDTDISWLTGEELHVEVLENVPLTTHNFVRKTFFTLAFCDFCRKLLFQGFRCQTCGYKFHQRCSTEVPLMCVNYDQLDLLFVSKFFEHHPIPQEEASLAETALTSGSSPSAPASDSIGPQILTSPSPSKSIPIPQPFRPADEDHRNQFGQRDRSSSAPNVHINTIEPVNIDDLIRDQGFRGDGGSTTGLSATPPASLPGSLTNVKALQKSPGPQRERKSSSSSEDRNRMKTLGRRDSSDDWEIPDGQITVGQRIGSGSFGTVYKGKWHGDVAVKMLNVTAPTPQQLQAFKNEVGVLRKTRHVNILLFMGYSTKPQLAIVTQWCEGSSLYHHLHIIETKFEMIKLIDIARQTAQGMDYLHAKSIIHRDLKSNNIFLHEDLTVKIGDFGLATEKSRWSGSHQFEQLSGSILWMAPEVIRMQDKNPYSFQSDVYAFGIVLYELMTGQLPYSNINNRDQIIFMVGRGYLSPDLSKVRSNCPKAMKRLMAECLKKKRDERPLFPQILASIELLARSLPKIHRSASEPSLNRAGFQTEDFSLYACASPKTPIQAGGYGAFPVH
T1 sequence (Q96SW2 whole entry): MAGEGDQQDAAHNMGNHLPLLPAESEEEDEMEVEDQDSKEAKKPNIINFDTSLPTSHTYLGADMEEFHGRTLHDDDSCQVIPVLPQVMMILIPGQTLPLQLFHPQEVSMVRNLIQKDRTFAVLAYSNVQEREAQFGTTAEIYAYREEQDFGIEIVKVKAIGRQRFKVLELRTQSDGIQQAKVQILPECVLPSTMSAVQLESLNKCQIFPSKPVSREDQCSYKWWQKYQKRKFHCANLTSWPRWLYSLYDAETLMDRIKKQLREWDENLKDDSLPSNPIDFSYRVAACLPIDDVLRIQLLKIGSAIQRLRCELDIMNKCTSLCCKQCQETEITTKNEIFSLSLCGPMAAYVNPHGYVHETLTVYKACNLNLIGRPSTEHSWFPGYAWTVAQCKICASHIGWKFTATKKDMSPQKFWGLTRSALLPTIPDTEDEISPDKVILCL
T1 sequence (Q16531 whole entry partner): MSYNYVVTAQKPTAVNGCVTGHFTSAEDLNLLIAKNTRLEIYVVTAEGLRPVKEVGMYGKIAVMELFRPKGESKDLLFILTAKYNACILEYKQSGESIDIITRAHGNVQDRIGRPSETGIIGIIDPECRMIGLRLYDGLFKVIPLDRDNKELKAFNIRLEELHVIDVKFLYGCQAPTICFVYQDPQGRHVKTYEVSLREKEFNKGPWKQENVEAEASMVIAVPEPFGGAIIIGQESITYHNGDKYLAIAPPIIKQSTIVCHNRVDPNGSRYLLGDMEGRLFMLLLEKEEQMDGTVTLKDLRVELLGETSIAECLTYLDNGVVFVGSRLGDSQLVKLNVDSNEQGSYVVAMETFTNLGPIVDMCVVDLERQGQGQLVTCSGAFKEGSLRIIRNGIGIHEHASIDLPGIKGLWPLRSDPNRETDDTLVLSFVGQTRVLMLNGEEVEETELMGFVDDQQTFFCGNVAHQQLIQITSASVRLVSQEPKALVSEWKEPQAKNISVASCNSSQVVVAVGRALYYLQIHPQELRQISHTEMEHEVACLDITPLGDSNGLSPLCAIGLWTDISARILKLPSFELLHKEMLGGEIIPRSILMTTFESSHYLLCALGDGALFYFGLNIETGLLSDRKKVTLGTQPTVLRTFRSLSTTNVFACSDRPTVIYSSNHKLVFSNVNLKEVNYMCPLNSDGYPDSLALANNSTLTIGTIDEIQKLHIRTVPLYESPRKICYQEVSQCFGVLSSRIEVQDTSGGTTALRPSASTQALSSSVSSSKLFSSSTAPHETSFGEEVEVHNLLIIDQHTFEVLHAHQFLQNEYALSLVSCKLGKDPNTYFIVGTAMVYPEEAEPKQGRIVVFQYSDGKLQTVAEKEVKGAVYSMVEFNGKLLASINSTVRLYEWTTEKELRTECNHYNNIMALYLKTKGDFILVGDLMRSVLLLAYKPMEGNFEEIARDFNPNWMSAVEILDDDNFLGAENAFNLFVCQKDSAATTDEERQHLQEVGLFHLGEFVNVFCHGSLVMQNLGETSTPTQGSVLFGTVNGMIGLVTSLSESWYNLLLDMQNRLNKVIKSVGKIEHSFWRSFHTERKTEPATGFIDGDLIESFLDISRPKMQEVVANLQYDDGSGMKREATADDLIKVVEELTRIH

Row | SMILES | DC50 (BRAF V600E; [1]) [nM] | DC50 (BRAF V600E; [2]) [nM] | Emax (BRAF V600E; [3]) [%] | GI50 (A375-NRAS^Q61K cells; 96 h) [nM] | DC50 (BRAF V600E; [4]) [nM] | DC50 (BRAF V600E; [5]) [nM] | Emax (BRAF V600E; [6]) [%] | Emax (BRAF V600E; read-out: HiBiT-Degradation A375.10 BRAF 2 hours Emax) [%] | GI50 (A375-NRAS^Q61K cells) [nM] | Emax (A375-NRAS^Q61K cells; 96 h) [%] | Emax (A375-NRAS^Q61K cells) [%]
1 | CN(CCO)S(=O)(=O)Nc1ccc(F)c(Oc2ccc3ncn([C@H]4COC5(CCN([C@H]6C[C@@H](c7cc8c(cc7F)c(N7CCC(=O)NC7=O)nn8C)C6)CC5)C4)c(=O)c3c2)c1C#N [Compound 165, (3R)-3-[6-[2-cyano-6-fluoro-3-[[2-hydroxyethyl(methyl)sulfamoyl]amino]phenoxy]-4-oxo-quinazolin-3-yl]-8-[3-[3-(2,4-dioxohexahydropyrimidin-1-yl)-5-fluoro-1-methyl-indazol-6-yl]cyclobutyl]-1-oxa-8-azaspiro[4.5]decane] | < 1000 | < 1000 | 50 to 90 | > 10000 | – | – | – | – | – | 50 to 90 | –
2 | CN(CCO)S(=O)(=O)Nc1ccc(F)c(Oc2ccc3ncn([C@H]4COC5(CCN([C@H]6C[C@@H](c7ccc(NC8CCC(=O)NC8=O)cc7F)C6)CC5)C4)c(=O)c3c2)c1C#N (stereo partly drawn) [Compound 168, (3R)-3-[6-[2-cyano-6-fluoro-3-[[2-hydroxyethyl(methyl)sulfamoyl]amino]phenoxy]-4-oxo-quinazolin-3-yl]-8-[3-[4-[(2,6-dioxo-3-piperidyl)amino]-2-fluoro-phenyl]cyclobutyl]-1-oxa-8-azaspiro[4.5]decane] | < 1000 | < 1000 | 50 to 90 | > 10000 | – | – | – | – | – | 50 to 90 | –
3 | CN(CCO)S(=O)(=O)Nc1ccc(F)c(Oc2ccc3ncc(C4CC5(CCN(C6CC7(C6)CN(c6cc8c(cc6F)c(N6CCC(=O)NC6=O)nn8C)C7)CC5)C4)nc3c2)c1C#N (stereo not shown) [Compound 187, 7-[2-cyano-6-fluoro-3-[[2-hydroxyethyl(methyl)sulfamoyl]amino]phenoxy]-2-[7-[2-[3-(2,4-dioxohexahydropyrimidin-1-yl)-5-fluoro-1-methyl-indazol-6-yl]-2-azaspiro[3.3]heptan-6-yl]-7-azaspiro[3.5]nonan-2-yl]quinoxaline] | – | – | 50 to 90 | > 10000 | 1000 to 10000 | < 1000 | – | – | – | 50 to 90 | –
4 | CCN(C)S(=O)(=O)Nc1ccc(F)c(Oc2ccc3ncn(C4CC5(CCN(C6CC7(C6)CN(c6ccc(NC8CCC(=O)NC8=O)cc6F)C7)CC5)C4)c(=O)c3c2)c1F (stereo not shown) [Compound 188, 3-[7-[2-[4-[(2,6-dioxo-3-piperidyl)amino]-2-fluoro-phenyl]-2-azaspiro[3.3]heptan-6-yl]-7-azaspiro[3.5]nonan-2-yl]-6-[3-[[ethyl(methyl)sulfamoyl]amino]-2,6-difluoro-phenoxy]-4-oxo-quinazoline] | < 1000 | < 1000 | 50 to 90 | > 10000 | – | – | – | – | – | 50 to 90 | –
5 | CCN(C)S(=O)(=O)Nc1ccc(F)c(Oc2ccc3ncn([C@H]4COC5(CCC(N6CC[C@@H](c7ccc(NC8CCC(=O)NC8=O)cc7F)C(F)(F)C6)CC5)C4)c(=O)c3c2)c1C#N (stereo partly drawn) [Compound 189, 6-[2-cyano-3-[[ethyl(methyl)sulfamoyl]amino]-6-fluoro-phenoxy]-3-[(3R)-8-[(4S)-4-[4-[(2,6-dioxo-3-piperidyl)amino]-2-fluoro-phenyl]-3,3-difluoro-1-piperidyl]-1-oxaspiro[4.5]decan-3-yl]-4-oxo-quinazoline] | < 1000 | < 1000 | – | > 10000 | – | – | 50 to 90 | – | – | < 50 | –
6 | CCN(C)S(=O)(=O)Nc1ccc(F)c(Oc2ccc3ncn([C@H]4COC5(CCN(C6C7COCC6CC(c6ccc(NC8CCC(=O)NC8=O)cc6F)C7)CC5)C4)c(=O)c3c2)c1C#N (stereo partly drawn) [Compound 194, (3R)-3-[6-[2-cyano-3-[[ethyl(methyl)sulfamoyl]amino]-6-fluoro-phenoxy]-4-oxo-quinazolin-3-yl]-8-[7-[4-[(2,6-dioxo-3-piperidyl)amino]-2-fluoro-phenyl]-3-oxabicyclo[3.3.1]nonan-9-yl]-1-oxa-8-azaspiro[4.5]decane] | < 1000 | > 10000 | – | – | – | – | – | 50 to 90 | > 10000 | – | 50 to 90
7 | CCN(C)S(=O)(=O)Nc1ccc(F)c(Oc2ccc3ncn(C4CC5(CC(N6CC[C@H](c7cc8c(cc7F)c(N7CCC(=O)NC7=O)nn8C)C(F)(F)C6)C5)C4)c(=O)c3c2)c1C#N (stereo partly drawn) [Compound 217, 6-[2-cyano-3-[[ethyl(methyl)sulfamoyl]amino]-6-fluoro-phenoxy]-3-[2-[(4R)-4-[3-(2,4-dioxohexahydropyrimidin-1-yl)-5-fluoro-1-methyl-indazol-6-yl]-3,3-difluoro-1-piperidyl]spiro[3.3]heptan-6-yl]-4-oxo-quinazoline] | < 1000 | < 1000 | < 50 | 1000 to 10000 | – | – | – | – | – | 50 to 90 | –
8 | CCN(C)S(=O)(=O)Nc1ccc(F)c(Oc2ccc3ncn(C4CC5(CCN(C6CCC7(CC6)CN(c6cc8c(cc6F)c(N6CCC(=O)NC6=O)nn8C)C7)CC5)C4)c(=O)c3c2)c1C#N (stereo not shown) [Compound 220, 6-[2-cyano-3-[[ethyl(methyl)sulfamoyl]amino]-6-fluoro-phenoxy]-3-[7-[2-[3-(2,4-dioxohexahydropyrimidin-1-yl)-5-fluoro-1-methyl-indazol-6-yl]-2-azaspiro[3.5]nonan-7-yl]-7-azaspiro[3.5]nonan-2-yl]-4-oxo-quinazoline] | < 1000 | > 10000 | 50 to 90 | > 10000 | – | – | – | – | – | 50 to 90 | –

Continued, in another order:

Row | DC50 (BRAF V600E; [1]) [nM] | DC50 (BRAF V600E; [2]) [nM] | Emax (BRAF V600E; [3]) [%] | GI50 (A375-NRAS^Q61K cells; 96 h) [nM] | DC50 (BRAF V600E; [4]) [nM] | DC50 (BRAF V600E; [5]) [nM] | Emax (BRAF V600E; [6]) [%] | Emax (BRAF V600E; read-out: HiBiT-Degradation A375.10 BRAF 2 hours Emax) [%] | GI50 (A375-NRAS^Q61K cells) [nM] | SMILES | Emax (A375-NRAS^Q61K cells; 96 h) [%] | Emax (A375-NRAS^Q61K cells) [%]
9 | – | – | 50 to 90 | 1000 to 10000 | < 1000 | < 1000 | – | – | – | CCN(C)S(=O)(=O)Nc1ccc(F)c(Oc2ccc3ncn([C@H]4COC5(CCN(C6CC7(C6)CN(c6cc8c(cc6F)c(N6CCC(=O)NC6=O)nn8C)C7)CC5)C4)c(=O)c3c2)c1F [Compound 186, (3R)-8-[2-[3-(2,4-dioxohexahydropyrimidin-1-yl)-5-fluoro-1-methyl-indazol-6-yl]-2-azaspiro[3.3]heptan-6-yl]-3-[6-[3-[[ethyl(methyl)sulfamoyl]amino]-2,6-difluoro-phenoxy]-4-oxo-quinazolin-3-yl]-1-oxa-8-azaspiro[4.5]decane] | > 90 | –
10 | – | – | 50 to 90 | 1000 to 10000 | > 10000 | < 1000 | – | – | – | CCN(C)S(=O)(=O)Nc1ccc(F)c(Oc2ccc3ncn([C@H]4COC5(CCN(C6CC7(C6)CN(c6ccc(NC8CCC(=O)NC8=O)cc6F)C7)CC5)C4)c(=O)c3c2)c1F (stereo partly drawn) [Compound 193, (3R)-8-[2-[4-[(2,6-dioxo-3-piperidyl)amino]-2-fluoro-phenyl]-2-azaspiro[3.3]heptan-6-yl]-3-[6-[3-[[ethyl(methyl)sulfamoyl]amino]-2,6-difluoro-phenoxy]-4-oxo-quinazolin-3-yl]-1-oxa-8-azaspiro[4.5]decane] | 50 to 90 | –
11 | < 1000 | 1000 to 10000 | 50 to 90 | 1000 to 10000 | – | – | – | – | – | CN(CCO)S(=O)(=O)Nc1ccc(F)c(Oc2ccc3ncn(C4CC5(CCN(C6CC7(C6)CN(c6cc8c(cc6F)c(N6CCC(=O)NC6=O)nn8C)C7)CC5)C4)c(=O)c3c2)c1F (stereo not shown) [Compound 197, 6-[2,6-difluoro-3-[[2-hydroxyethyl(methyl)sulfamoyl]amino]phenoxy]-3-[7-[2-[3-(2,4-dioxohexahydropyrimidin-1-yl)-5-fluoro-1-methyl-indazol-6-yl]-2-azaspiro[3.3]heptan-6-yl]-7-azaspiro[3.5]nonan-2-yl]-4-oxo-quinazoline] | 50 to 90 | –
12 | < 1000 | < 1000 | – | < 1000 | – | – | < 50 | – | – | CCN(C)S(=O)(=O)Nc1ccc(F)c(C(=O)c2ccc3ncn([C@H]4COC5(CCN(C6CCC(c7cc8c(cc7F)c(N7CCC(=O)NC7=O)nn8C)CC6)CC5)C4)c(=O)c3c2)c1F (stereo partly drawn) [Compound 208, (3R)-8-[4-[3-(2,4-dioxohexahydropyrimidin-1-yl)-5-fluoro-1-methyl-indazol-6-yl]cyclohexyl]-3-[6-[3-[[ethyl(methyl)sulfamoyl]amino]-2,6-difluoro-benzoyl]-4-oxo-quinazolin-3-yl]-1-oxa-8-azaspiro[4.5]decane] | 50 to 90 | –
13 | < 1000 | < 1000 | 50 to 90 | 1000 to 10000 | – | – | – | – | – | CCN(C)S(=O)(=O)Nc1ccc(F)c(Oc2ccc3ncn(C4CC5(CCN([C@H]6C[C@@H](c7cc8c(cc7F)c(N7CCC(=O)NC7=O)nn8C)C6)CC5)C4)c(=O)c3c2)c1C#N [Compound 209, 6-[2-cyano-3-[[ethyl(methyl)sulfamoyl]amino]-6-fluoro-phenoxy]-3-[7-[3-[3-(2,4-dioxohexahydropyrimidin-1-yl)-5-fluoro-1-methyl-indazol-6-yl]cyclobutyl]-7-azaspiro[3.5]nonan-2-yl]-4-oxo-quinazoline] | < 50 | –
14 | < 1000 | < 1000 | < 50 | < 1000 | – | – | – | – | – | CCN(C)S(=O)(=O)Nc1ccc(F)c(Oc2ccc3ncn(C4CC5(CCN(C6COC7(CCN(c8cc9c(cc8F)c(N8CCC(=O)NC8=O)nn9C)CC7)C6)CC5)C4)c(=O)c3c2)c1C#N (stereo not shown) [Compound 216] | 50 to 90 | –
